Data reported in publication PMC11927960, “Multiparameter ranking of carbazoles for anti-trypanosome lead discovery” (Frontiers in drug discovery, 2024).
Converted amounts (≈) assume the structure as drawn.

Key:
[1] = Thermodynamic aqueous solubility (pH 7.4); assay type: physicochemical; conditions: aqueous buffer, thermodynamic from solid, phosphate buffer pH 7.4, 25 °C, 20–24 h
Description: Thermodynamic aqueous solubility (pH 7.4).
Various amounts of compounds in powdered form were added to phosphate buffer (0.1 M, pH 7.4). Suspensions were kept on a shaker at 25 °C for 20–24 h. After centrifugation, compounds in the supernatant were quantified using LC-MS/MS.

[2] = Human liver microsome intrinsic clearance (HLM Clint); assay type: in vitro ADME; conditions: human liver microsomes, 37 °C
Description: Intrinsic metabolic clearance.
The test compound was added to a final concentration of 1 μM, and the residual concentrations were tracked with LC-MS/MS at defined time points.

[3] = system: T. brucei Lister427; assay: Delayed trypanocidal assay (6 h exposure, wash-off); assay type: cell-based, Trypanosoma brucei; conditions: for DTC25 (Figure 1) / DTC50 (Figure 1) / DTC90 (Figure 1): 5 × 10^5/mL, 6 h, wash, 24 h drug-free, unit not given; for DTC50 (concentration causing 50% cidality): 6-h treatment and wash-off
Description: Trypanosomes were washed, enumerated with a Coulter Counter, and transferred into a drug-free HMI-9 medium for 24 h in a 24-well plate (1 × 10^5 cells/mL). After 24 h, cells were enumerated with a Coulter counter (see flow-chart). Data obtained were analyzed using GraphPad Prism to determine DTC25, DTC50, and DTC90 values.
Delayed trypanocidal assay
Mid-logarithmic growth-phase T. b. Lister427 were inoculated into HMI-9 medium (5 × 10^5 cell/mL). Cells were incubated with either 0.1% DMSO (vehicle) or serial dilutions of drug in 24-well plates for 6 h at 37 °C/5% CO2, following which trypanosomes were pelleted (3,000 g, 5 min), rinsed with drug-free HMI-9 medium, and cells enumerated with a Coulter counter. Trypanosomes were then inoculated at 1 × 10^5 cells/mL in 24-well-plates or 384-well plates and cultured for 24 h, after which trypanosomes were checked for viability with a hemocytometer and enumerated with a Coulter counter. Each experiment was performed thrice, and non-linear regression graphs plotted with GraphPad Prism were used to obtain DTC50 values ([Bachovchin et al., 2019]).

[4] = Plasma pharmacokinetics after single oral dose; assay type: in vivo, Swiss Webster mice; conditions: Swiss Webster, mouse; for AUC(0-t): female mice values of Table 3, quoted in μM, read-out: AUC0–6h
Description: The plasma concentration and tissue distribution of drugs were determined by Absorption Systems. […] Blood and brain samples were obtained at 1, 2, 4, and 6 h post-dosing, and plasma and brain concentrations of the drug were determined using LC-MS/MS. Stock standards for calibration were prepared in a matrix comprising equal volumes of water and mouse blood containing K2-EDTA as an anticoagulant. Working solutions were prepared in 50:50 acetonitrile–water and added to the matrix to final concentrations of 1,000, 500, 100, 50.0, 10.0, 5.00, 1.00, and 0.500 ng/mL for all compounds. Pharmacokinetic parameters were determined using Phoenix WinNonlin (v8.0) software with sparse sampling. Maximum plasma concentration (Cmax) and the time to reach maximum plasma concentration (tmax) were determined from the four data points. The area under the time concentration curve (AUClast) was calculated using the linear trapezoidal rule with calculation to a 6-h data point. Plasma half-life (t1/2) was calculated from 0.693/slope of the terminal elimination phase. Samples below the limit of detection (0.500 ng/mL) were treated as 0.

[5] = in vivo; conditions: both sexes, mouse, oral, Swiss Webster mice, 10 consecutive days, read-out: Repeated maximum tolerated dose (rMTD)
Description: Maximum tolerated dose of compounds in mice.
To determine a single maximum tolerated dose (sMTD), male and female Swiss Webster mice were first given a single 50 mg/kg dose of compound formulated in N-methyl-2-pyrrolidone (10% v/v) and 0.2% hydroxypropyl methylcellulose (90% v/v). Mice were monitored daily for up to 7 days post-administration for overall condition using a Total Condition Scoring (TCS) system (Supplementary Table S1) and body weight changes. If greater than 20% body weight loss was recorded, the dose was lowered in two-fold amounts in subsequent tests. […] When no toxicity was observed, sMTD values were utilized to determine the repetitive maximum tolerated dose (rMTD). Male and female Swiss-Webster mice were treated with sMTD for 10 consecutive days. […] If adverse effects were recorded, the daily doses were reduced two-fold in follow-up work. At the end of the study, mice were euthanized by CO2 asphyxiation followed by cervical dislocation.

[6] = system: DNA synthesis in Trypanosoma brucei; assay: DNA synthesis (EdU incorporation); assay type: cell-based; conditions: for Effect on EdU incorporation into nuclei (DNA synthesis): DTC25 (CBL0174 48 nM, CBL0187 54 nM), vs DMSO, p < 0.0001; for DNA Synthesis affected: DTC25, Table S3
Description: Incorporated EdU was tracked by clicking with azide-Alexa Fluor-488 and observed with a fluorescence microscope. For quantitation, at least 100 cells were analyzed from each sample. (A) Representative images of the EdU-positive signal (green) with DAPI (blue) in 0.1% DMSO (top), CBL0174-treated (middle), or CBL0187-treated cells (bottom). (B) Representative images for quantitation of nuclear EdU brightness (nEdU). CellProfiler 3.1.9 was used to extract the EdU fluorescence signal over the DAPI area. Lines represent the median with error bars denoting standard deviation (SD) from three biological replicates. The statistical significance of the distribution of EdU brightness in different treatment groups was analyzed with a Mann–Whitney test.
Bloodstream trypanosomes (5 × 10^5 cells/mL) pretreated with DTC25 concentrations of CBL0174 or CBL0187 in HMI-9 medium (for 15 min) were incubated with 5-ethynyl-2′-deoxyuridine (EdU) (Abcam) (300 μM) for 1 h. Cells were prepared as per [Sullenberger et al. (2017)]. Images of trypanosomes were captured using a DeltaVision II Olympus inverted microscope processed with Fiji (ImageJ, v 2.0.0) and analyzed using CellProfiler 3.1.9 ([Sanz-Rodriguez et al., 2022]).

[7] = 6 h treatment at 5 × 10^5/mL, wash-off, survival tracked 24 h

| Structure (SMILES) | solubility [1] | microsomal CLint at 1 μM [2] | DTC25 (Figure 1) [3] | DTC50 (Figure 1) [3] | DTC90 (Figure 1) [3] | DTC50 (concentration causing 50% cidality) [3] | DTC50 T. brucei Lister427 [3, 7] | DTC90 T. brucei Lister427 [3, 7] | AUC(0-t) [4] | Tmax ([4]; female) | half-life ([4]; female) | Tmax ([4]; male) | half-life ([4]; male) | MTD at 10 days [5] | Effect on EdU incorporation into nuclei (DNA synthesis) [6] | DNA Synthesis affected [6] | DTC25 T. brucei Lister427 [3, 7] |
| --- | --- | --- | --- | --- | --- | --- | --- | --- | --- | --- | --- | --- | --- | --- | --- | --- | --- |
| CC(=O)c1cc2c3cc(C(C)=O)c(O)cc3n(CCCN(C)C)c2cc1O [CBL0174, 1-[6-acetyl-9-[3-(dimethylamino)propyl]-2,7-dihydroxy-carbazol-3-yl]ethanone] | 773 µM (≈ 285 µg/mL) | 4.89 µL/min/mg | 48 | 110 | 600 | 0.11 µM | 110 nM | 600 nM | 3.14 ± 0.25 µM·h | 1 h | 3.61 h | 1 h | 4.33 h | 60 mg/kg | inhibited EdU incorporation into nuclei | Yes |  |
| CC(=O)c1cc2c3cc(C(C)=O)c(O)cc3n(CCNC(C)C)c2cc1O [CBL0187, 1-[6-acetyl-2,7-dihydroxy-9-[2-(isopropylamino)ethyl]carbazol-3-yl]ethanone] | 36.3 µM (≈ 13.4 µg/mL) | 12.4 µL/min/mg | 54 | 110 | 550 | 0.11 µM | 110 nM | 550 nM | 2.95 ± 0.18 µM·h | 1.5 ± 0.7 h | > 6 h | 2 h | > 6 h | 50 mg/kg | inhibited EdU incorporation into nuclei | Yes | 54 nM |
